Calls of active or inactive are those of the source. No cut-off for these calls is given here.
How the values were obtained:
[1] = biological target: RNA-directed RNA polymerase (Hepacivirus hominis, UniProt O39930); assay: Inhibitory activity against HCV delta 21 NS5b RNA polymerase
ECV-304 = assay: Cytotoxicity in E304 cells; assay type: functional, cell-based; settings: Homo sapiens
HFF = assay: Cytotoxicity in HFF cells; assay type: functional, cell-based; settings: Homo sapiens
[2] = biological target: T1, Avian myoblastosis virus polyprotein II (Avian myeloblastosis virus, UniProt Q86831); assay: Inhibitory activity against AMV Reverse transcriptase
T1 sequence (Q86831 whole entry): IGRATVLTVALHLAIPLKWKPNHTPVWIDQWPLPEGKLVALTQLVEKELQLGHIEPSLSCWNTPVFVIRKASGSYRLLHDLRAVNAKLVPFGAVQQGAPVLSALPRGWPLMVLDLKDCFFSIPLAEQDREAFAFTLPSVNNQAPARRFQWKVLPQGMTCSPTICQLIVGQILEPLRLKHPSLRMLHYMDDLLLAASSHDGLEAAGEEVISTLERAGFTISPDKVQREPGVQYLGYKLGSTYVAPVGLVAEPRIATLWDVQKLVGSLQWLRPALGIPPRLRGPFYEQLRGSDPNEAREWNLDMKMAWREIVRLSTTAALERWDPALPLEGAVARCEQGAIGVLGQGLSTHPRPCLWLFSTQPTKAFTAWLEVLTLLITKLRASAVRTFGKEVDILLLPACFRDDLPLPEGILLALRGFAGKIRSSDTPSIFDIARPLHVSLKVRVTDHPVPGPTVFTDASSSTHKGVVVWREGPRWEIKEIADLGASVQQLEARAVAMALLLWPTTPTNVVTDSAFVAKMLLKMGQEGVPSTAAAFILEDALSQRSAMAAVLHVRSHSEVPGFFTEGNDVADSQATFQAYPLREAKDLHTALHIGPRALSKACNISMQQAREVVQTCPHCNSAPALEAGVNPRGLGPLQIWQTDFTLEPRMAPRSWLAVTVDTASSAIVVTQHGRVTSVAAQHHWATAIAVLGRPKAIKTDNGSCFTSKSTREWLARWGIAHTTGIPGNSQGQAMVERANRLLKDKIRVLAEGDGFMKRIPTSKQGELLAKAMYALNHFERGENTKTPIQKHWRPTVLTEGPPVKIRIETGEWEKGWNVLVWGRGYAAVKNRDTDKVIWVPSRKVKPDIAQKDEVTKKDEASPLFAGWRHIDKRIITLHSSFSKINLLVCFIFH

Genome polyprotein = Genome polyprotein (Bovine viral diarrhea virus (strain CP7) (BVDV) (Mucosal diseasevirus), UniProt Q96662); assay: Inhibitory activity against BVDV NS5b RNA polymerase; parameters: species or system Bovine viral diarrhea virus 1
[3] = Plasma clearance in rat at 0.86 mg/kg, iv; assay type: ADME, organism-based; parameters: dose 0.86 mg/kg, route intravenous; settings: Sprague-Dawley
[4] = AUC(0-8h) in rat at 4.3 mg/kg, po; assay type: ADME, organism-based; parameters: time < 8 hr, dose 4.3 mg/kg, route oral; settings: Sprague-Dawley, plasma
[5] = Tmax in rat at 4.3 mg/kg, po; assay type: ADME, organism-based; parameters: dose 4.3 mg/kg, route oral; settings: Sprague-Dawley, in vivo
[6] = Cmax in rat at 4.3 mg/kg, po; assay type: ADME, organism-based; parameters: dose 4.3 mg/kg, route oral; settings: Sprague-Dawley, in vivo
[7] = Half life in rat at 0.86 mg/kg, iv; assay type: ADME, organism-based; parameters: dose 0.86 mg/kg, route intravenous; settings: Sprague-Dawley, in vivo
[8] = Volume of distribution in rat at 0.86 mg/kg, iv; assay type: ADME, organism-based; parameters: dose 0.86 mg/kg, route intravenous; settings: Sprague-Dawley, in vivo, read-out: Vdss
[9] = AUC(0-8h) in rat at 4.1 mg/kg, po; assay type: ADME, organism-based; parameters: time < 8 hr, dose 4.1 mg/kg, route oral; settings: Sprague-Dawley, plasma
[10] = Tmax in rat at 4.1 mg/kg, po; assay type: ADME, organism-based; parameters: dose 4.1 mg/kg, route oral; settings: Sprague-Dawley, in vivo
Tubulin (Homo sapiens) = Tubulin (Homo sapiens) (UniProt P68371+Q9H4B7+P0DPH7+P68366+Q13509+Q71U36+P04350+Q3ZCM7+P07437+P68363+Q9BQE3+Q6PEY2+Q13885+Q9BVA1+Q9BUF5); assay: Effect on tubulin polymerization; assay type: functional
[11] = biological target: Aldo-keto reductase family 1 member B1 (Homo sapiens) (UniProt P15121); assay: Inhibition of aldose reductase
[12] = Volume of distribution in rat at 0.16 mg/kg, iv; assay type: ADME, organism-based; parameters: dose 0.16 mg/kg, route intravenous; settings: Sprague-Dawley, in vivo, read-out: Vdss
[13] = Plasma clearance in rat at 0.16 mg/kg, iv; assay type: ADME, organism-based; parameters: dose 0.16 mg/kg, route intravenous; settings: Sprague-Dawley
[14] = biological target: Cathepsin B (Homo sapiens) (UniProt P07858); assay: Inhibition of Cathepsin B
[15] = Cmax in rat at 4.1 mg/kg, po; assay type: ADME, organism-based; parameters: dose 4.1 mg/kg, route oral; settings: Sprague-Dawley, in vivo
[16] = Half life in rat at 0.16 mg/kg, iv; assay type: ADME, organism-based; parameters: dose 0.16 mg/kg, route intravenous; settings: Sprague-Dawley, in vivo
Homo sapiens = species on record: Homo sapiens; assay: Inhibition of human Caspase (caspase 1, caspase 3, caspase 6, caspase 7, caspase 8)
[17] = Inhibition of Calpain

Sequence of RNA-directed RNA polymerase (O39930 whole entry): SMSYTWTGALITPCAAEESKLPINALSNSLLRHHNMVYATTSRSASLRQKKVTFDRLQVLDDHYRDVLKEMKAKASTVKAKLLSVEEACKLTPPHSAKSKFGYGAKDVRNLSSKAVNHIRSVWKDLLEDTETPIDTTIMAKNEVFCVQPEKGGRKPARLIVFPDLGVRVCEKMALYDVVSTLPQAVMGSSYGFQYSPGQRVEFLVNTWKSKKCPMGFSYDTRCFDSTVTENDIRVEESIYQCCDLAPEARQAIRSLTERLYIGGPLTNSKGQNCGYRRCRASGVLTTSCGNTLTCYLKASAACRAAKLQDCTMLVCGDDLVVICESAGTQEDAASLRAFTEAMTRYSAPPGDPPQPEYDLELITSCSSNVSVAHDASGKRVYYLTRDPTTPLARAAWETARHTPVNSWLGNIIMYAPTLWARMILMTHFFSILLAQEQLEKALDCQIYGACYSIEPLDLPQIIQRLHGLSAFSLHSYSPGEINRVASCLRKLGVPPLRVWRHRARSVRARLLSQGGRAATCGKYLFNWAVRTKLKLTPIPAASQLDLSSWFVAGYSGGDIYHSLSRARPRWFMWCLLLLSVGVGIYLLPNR
Sequence of Genome polyprotein (Q96662 3189-3907 limits assumed): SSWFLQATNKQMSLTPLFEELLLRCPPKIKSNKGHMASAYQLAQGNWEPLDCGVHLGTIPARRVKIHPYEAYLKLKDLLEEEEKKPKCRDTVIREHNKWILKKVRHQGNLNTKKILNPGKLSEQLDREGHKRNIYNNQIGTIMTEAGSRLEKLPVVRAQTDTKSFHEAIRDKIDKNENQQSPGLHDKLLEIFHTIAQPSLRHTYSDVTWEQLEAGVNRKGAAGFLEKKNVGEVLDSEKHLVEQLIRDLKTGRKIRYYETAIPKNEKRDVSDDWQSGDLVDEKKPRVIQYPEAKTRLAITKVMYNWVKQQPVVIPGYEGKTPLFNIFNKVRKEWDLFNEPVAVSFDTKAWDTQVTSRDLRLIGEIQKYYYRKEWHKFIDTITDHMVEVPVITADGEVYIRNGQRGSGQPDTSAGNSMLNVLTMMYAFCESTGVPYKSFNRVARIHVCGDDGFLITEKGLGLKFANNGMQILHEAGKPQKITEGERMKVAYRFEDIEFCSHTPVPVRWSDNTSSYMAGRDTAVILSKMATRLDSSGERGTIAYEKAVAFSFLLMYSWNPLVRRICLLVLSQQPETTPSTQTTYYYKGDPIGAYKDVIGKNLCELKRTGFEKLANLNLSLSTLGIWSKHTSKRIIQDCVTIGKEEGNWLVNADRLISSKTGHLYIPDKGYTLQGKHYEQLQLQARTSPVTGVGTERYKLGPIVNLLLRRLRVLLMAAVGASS

Row | SMILES | IC50 [1] [µM] | IC50 (ECV-304) [µM] | IC50 (HFF) [µM] | also measured
1 | O=C1/C(=C/c2cc(F)ccc2F)SC(=S)N1NS(=O)(=O)c1ccccc1 | 1.7 | > 50 | > 100 | –
2 | O=C1/C(=C/c2cc(F)c(F)c(F)c2)SC(=S)N1NS(=O)(=O)c1ccccc1 | 1 | > 50 | > 100 | –
3 | O=C1NC(=S)S/C1=C\c1ccc([N+](=O)[O-])cc1 | 22 | – | – | –
4 | NN1C(=O)/C(=C/c2ccc(F)cc2)SC1=S | 7 | – | – | –
5 | O=C1/C(=C/c2ccc3c(c2)OCO3)SC(=S)N1NS(=O)(=O)c1ccccc1 | 15 | > 50 | > 100 | –
6 | O=C1/C(=C/c2ccccc2F)SC(=S)N1NS(=O)(=O)c1ccccc1 | 6.5 | > 50 | > 100 | –
7 | O=C1C(Cc2ccc(Cl)c(Cl)c2)SC(=S)N1NS(=O)(=O)c1ccccc1 (stereo unspecified) | 11 | – | – | –
8 | O=C1/C(=C/c2ccc(Cl)cc2)SC(=S)N1NS(=O)(=O)c1ccccc1 | 1.5 | – | – | IC50 [2]: > 30 µM; IC50 (Genome polyprotein): > 30 µM
9 | CN1C(=O)/C(=C/c2ccc([N+](=O)[O-])cc2)SC1=S | 30 | – | – | –
10 | COc1ccc(/C=C2\SC(=S)N(N)C2=O)cc1 | > 30 | – | – | –
11 | O=S(=O)(NN1C(=S)SC(Cc2ccc(Cl)c(Cl)c2)C1O)c1ccccc1 (stereo unspecified) | 27 | – | – | –
12 | CCN1C(=O)/C(=C/c2ccc(Cl)cc2)SC1=S | > 30 | – | – | –
13 | O=C1/C(=C/c2ccccc2)SC(=S)N1NS(=O)(=O)c1ccccc1 | 30 | > 50 | > 100 | –
14 | Cc1ccc(/C=C2\SC(=S)N(NS(=O)(=O)c3ccccc3)C2=O)cc1C | 8 | > 50 | > 100 | –
15 | COc1ccc(/C=C2\SC(=S)N(NS(=O)(=O)c3ccccc3)C2=O)cc1 | 5 | > 50 | > 100 | –
16 | O=C(NN1C(=O)/C(=C/c2ccc(Cl)cc2)SC1=S)c1ccccc1 | > 30 | – | – | –
17 | O=C1/C(=C/c2ccc(Br)c(Br)c2)SC(=S)N1NS(=O)(=O)c1ccccc1 | 0.2 | > 50 | > 100 | –
18 | CC(/C=C1\SC(=S)N(NS(=O)(=O)c2ccccc2)C1=O)=C\c1ccccc1 | 0.2 | > 50 | > 100 | –
19 | NN1C(=O)/C(=C/c2ccc(Cl)cc2)SC1=S | 16 | – | – | –
20 | CS(=O)(=O)NN1C(=O)/C(=C/c2ccc(Cl)c(Cl)c2)SC1=S | 2 | – | – | –
21 | O=C1/C(=C/c2ccc(Cl)cc2)SC(=S)N1Cc1ccccc1 | > 30 | – | – | –
22 | O=C1/C(=C/c2cccnc2)SC(=S)N1NS(=O)(=O)c1ccccc1 | 15 | > 50 | > 100 | –
23 | O=C1/C(=C/c2cc(F)c(F)cc2F)SC(=S)N1NS(=O)(=O)c1ccccc1 | 0.2 | > 50 | > 100 | –
24 | O=C1/C(=C/c2ccc(F)cc2)SC(=S)N1NS(=O)(=O)c1ccccc1 | 1 | > 50 | > 100 | –

Row | SMILES | IC50 [1] [µM] | IC50 (ECV-304) [µM] | IC50 (HFF) [µM] | also measured
25 | O=C1/C(=C/c2ccc(F)cc2F)SC(=S)N1NS(=O)(=O)c1ccccc1 | 3 | > 50 | > 100 | –
26 | O=C1/C(=C/c2ccc(-c3cc(C(F)(F)F)ccc3Cl)o2)SC(=S)N1NS(=O)(=O)c1ccccc1 | 0.1 | – | – | –
27 | O=C1/C(=C/c2ccc(C(F)(F)F)cc2)SC(=S)N1NS(=O)(=O)c1ccccc1 | 1 | > 50 | > 100 | –
28 | C/C(=C1/SC(=S)N(NS(=O)(=O)c2ccccc2)C1=O)c1ccc(Cl)c(Cl)c1 | 0.6 | – | – | –
29 | O=C1/C(=C/c2ccc([N+](=O)[O-])cc2)SC(=S)N1NS(=O)(=O)c1ccccc1 | 2 | > 50 | > 100 | –
30 | O=C1/C(=C/c2ccc(Br)cc2)SC(=S)N1NS(=O)(=O)c1ccccc1 | 0.7 | > 50 | > 100 | –
31 | O=C1NC(=S)S/C1=C\c1ccc(Cl)cc1 | > 30 | – | – | –
32 | N#Cc1ccc(/C=C2\SC(=S)N(NS(=O)(=O)c3ccccc3)C2=O)cc1 | 0.9 | > 50 | > 100 | –
33 | Cc1cccc(/C=C2\SC(=S)N(NS(=O)(=O)c3ccccc3)C2=O)c1 | 25 | > 50 | > 100 | –
34 | O=C1/C(=C/c2ccc(Cl)c(F)c2)SC(=S)N1NS(=O)(=O)c1ccccc1 | 1 | > 50 | > 100 | –
35 | O=C1/C(=C/c2ccc(F)c(F)c2F)SC(=S)N1NS(=O)(=O)c1ccccc1 | 1.9 | > 50 | > 100 | –
36 | NN1C(=O)/C(=C/c2ccc([N+](=O)[O-])cc2)SC1=S | 1 | – | – | –
37 | CCCCS(=O)(=O)NN1C(=O)/C(=C/c2ccc(Cl)c(Cl)c2)SC1=S | 0.7 | – | – | –
38 | Cc1ccc(/C=C2\SC(=S)N(NS(=O)(=O)c3ccccc3)C2=O)cc1 | 10 | > 50 | > 100 | –
39 | Cc1ccc(/C=C2\SC(=S)N(N)C2=O)cc1 | > 30 | – | – | –
40 | O=C1/C(=C/c2ccc(Cl)c(Cl)c2)SC(=S)N1NS(=O)(=O)c1cccs1 | 0.2 | > 50 | > 100 | clearance [3]: 2.83 mL/min/kg; AUC(0-t) at 8 h [4]: 25600 ng·h/mL; Tmax [5]: 1.7 h; Cmax [6]: 3970 ng/mL; half-life [7]: 3.3 h; Vd [8]: 0.7 L/kg
41 | CN(C)c1ccc(/C=C2\SC(=S)N(N)C2=O)cc1 | > 30 | – | – | –
42 | CN1C(=O)/C(=C/c2ccc(Cl)cc2)SC1=S | > 30 | – | – | –
43 | N#Cc1ccc(/C=C2\SC(=S)N(N)C2=O)cc1 | 7 | – | – | –
44 | O=C1/C(=C/c2ccc3ccccc3c2)SC(=S)N1NS(=O)(=O)c1ccccc1 | 3 | > 50 | > 100 | –
45 | O=C1/C(=C/c2ccc(Cl)c(Cl)c2)SC(=S)N1NS(=O)(=O)c1ccccc1 | 0.2 | > 50 | > 100 | AUC(0-t) at 8 h [9]: 25500 ng·h/mL; Tmax [10]: 3.3 h; Activity (Tubulin (Homo sapiens)): inactive; Activity [11]: inactive; Vd [12]: 0.09 L/kg; clearance [13]: 0.125 mL/min/kg; Activity [14]: inactive; Cmax [15]: 3740 ng/mL; half-life [16]: 9.2 h; Activity (Homo sapiens): inactive; Activity [17]: inactive
46 | NN1C(=O)/C(=C/c2ccccc2)SC1=S | > 30 | – | – | –
47 | COc1cccc(/C=C2\SC(=S)N(NS(=O)(=O)c3ccccc3)C2=O)c1 | 5 | > 50 | > 100 | –
